# Test results published in patent US9238631B2, “Radiolabeled amino acids for diagnostic imaging” (PIRAMAL IMAGING SA, priority 2011, dated 2016).
# What was measured:
# reactive lymph nodes = assay: PET uptake in inflammatory lesions (streptozotocin-induced reactive lymph nodes); assay type: in vivo, mice; details: dynamic PET 1 h, 3 days after streptozotocin
# Protocol: To test the specificity of compounds from the present invention, compound [^18F]-41 was examined in an animal model of reactive lymph nodes in comparison to the clinically commonly used PET tracer FDG. Therefore, female immunocompetent NMRI mice (10 weeks old) were injected with streptozotocin (500 μg/40 μL PBS) in the right hind limb to induce an inflammatory reaction in the right popliteal and additional lymph nodes. PET imaging studies were performed 3 days after Streptozotocin injection. PET images were acquired dynamically for 1 h after injection of approximately 5-10 MBq. After the imaging study, region-of-interest (ROI) analysis was performed in the popliteal, inguinal and iliacal lymph nodes. At least 3 animals were examined per tracer.
# A549 tumor = details: cited from earlier work
# [1] = system: NCI-H460 (human NSCLC) cells; assay: Time-dependent uptake and blocking of [^18F]-41 in NCI-H460 cells; assay type: cell-based
# Protocol: NCI-H460 (human NSCLC) cells, grown adherently in 48 well plates were used for these experiments. Approximately 100.000 cells were incubated in PBS-buffer containing 0.1% BSA with 0.25 MBq [^18F]-41 for up to 60 minutes. A time-dependent uptake was observed during the 60 min incubation period. Approximately 13% of applied dose was taken up by the cells during the 60 min incubation period (FIG. 6). For the blocking study [^18F]-41 was co-incubated with 1 mM 41 for 30 minutes. After this time, the cell bound radioactivity was determined.
# H460 cells = assay: Retention of radioactivity in H460 cells (efflux); assay type: cell-based, human; details: 30 minute efflux period after 30 minutes loading
# Protocol: The retention of radioactivity in tumor cells was examined. Therefore. H460 cells were loaded with 0.25 MBq of the respective tracer for 30 minutes in PBS buffer, containing 0.1% BSA. After this uptake, the buffer was removed and the cells were washed with PBS. The cells were then reincubated with new PBS buffer, without radioactivity for up to 30 minutes. The release of activity into the supernatant as well as the retention of activity inside the cells was examined. It was discovered, that only a limited amount of activity was released into the supernatant during the 30 minute efflux period. More than 80% of the activity were retained inside the tumor cells during the 30 minute incubation under these efflux conditions.
# In addition, the retention of radioactivity in tumor cells was examined. Therefore. H460 cells were loaded with 0.25 MBq of [^18F]-41 for 30 minutes in PBS buffer, containing 0.1% BSA. After this uptake, the buffer was removed and the cells were washed with PBS. The cells were then reincubated with new PBS buffer without radioactivity for 30 min. The release of activity into the supernatant as well as the retention of activity inside the cells was determined. It was discovered, that only a limited amount of activity was released into the supernatant during the 30 minute efflux period. […]
# NCI-H460 tumor [2] = assay: In vivo biodistribution in NCI-H460 tumor bearing mice; details: for T/Blood / T/Muscle: 1 h post injection
# Protocol: (§1) To test the pharmacokinetic properties of compounds from the present invention, all F18-labeled compounds were examined by biodistribution studies in NCI-H460 tumor bearing mice. Female NMRI (nu/nu) mice were inoculated with 5×10^6 NCI-H460 tumor cells 8 to 10 days before the biodistribution studies. 185 kBq of activity of the fluorinated compound was injected and at least n=3 mice were used for every time point. After injection of the F18-labeled compound, mice were sacrificed at defined time-points. All organs were removed and radioactivity was determined using a γ-counter.
# To compare the tumor uptake and retention of radioactivity of different ^18F-labeled derivatives from the present invention, biodistribution studies were performed in NCI-H460 tumor bearing NMRI (nu/nu) mice as described above.
# To compare the kidney clearance of several ^18F-labeled derivatives from the present invention, biodistribution studies were performed in NCI-H460 tumor bearing female NMRI (nu/nu) mice as described above. […] After 2 h p.i., less than 1% ID/g can be found in the kidneys.
# For comparison of pancreas uptake and clearance of several ^18F-labeled derivatives from the present invention, biodistribution studies were performed in NCI-H460 tumor bearing NMRI (nu/nu) mice as described above. […] After 2 h p.i., less than 2% ID/g can be found in the pancreas.
# as §1, with “and” for “for every time point. After injection of the F18-labeled compound, mice were”, “time-points raning from 15 min pi up to 2 h p.i.” for “time-points.”, “γ-counter. […] High tumor uptake values of >3% ID/g were obtained with various compounds from the present invention.” for “γ-counter.”
# NCI-H460 tumor [3] = assay: PET imaging in NCI-H460 tumor bearing nude-rats; assay type: in vivo; details: PET ROI analysis, 1 h p.i.
# Protocol: c) Beside PET-imaging studies in mice, also the imaging properties of [^18F]-12 in rats were examined. NCI-H460 tumor cells were inoculated into the right flank of nude-rats (RH-Foxn1 nu/nu) 8 to 10 days before the PET study. PET images were acquired at 60 min after injection of approximately 10 MBq for 10 minutes. The H460 tumor was nicely visible (0.9% ID/g as determined by ROI analysis). Beside some minor uptake into the liver and kidneys due to the excretion of the compound, no uptake into other non-target tissues was observed.
# To test the imaging properties, compounds from the present invention were evaluated in PET imaging studies using tumor bearing rats. NCI-H460 tumor cells were inoculated into the right flank of nude-rats (RH-Foxn1 nu/nu) 8 to 10 days before the PET study. PET images were acquired at 60 min after injection of approximately 10 MBq for 10 minutes. After the imaging study, region-of-interest (ROI) analysis was performed and activity in tumor, liver and kidney was determined. […] High tumor uptake values of >1% […] in this rat model were obtained with various compounds from the present invention. A favorable clearance profile of all compounds enables excellent tumor detection in PET imaging studies in tumor bearing rats.
# [4] = system: NCI-H460 (human NSCLC) cells; assay: Cell uptake studies: 30 min uptake in H460 cells; assay type: cell-based; details: 0.25 MBq tracer, PBS 0.1% BSA
# Protocol: For determination of the biological activity, the F18 labeled derivatives were used as tracers in cell uptake experiments. NCI-H460 (human NSCLC) cells, grown adherently in 48 well plates were used for these uptake-experiments. Approximately 100.000 cells were incubated with 0.25 MBq of the tracers for 30 min in PBS-buffer containing 0.1% BSA. After this time, the cell-bound radioactivity was determined using a γ-counter.
# xCT (SLC7A11) = target: T1, xCT (SLC7A11) (Homo sapiens, UniProt Q9UPY5); assay: Competition profile indicating uptake via xCT (SLC7A11); assay type: cell-based; details: co-incubation with 1 mM cold competitors, NCI-H460 cells
# T1 construct: NCI-H460 tumor cells were co-incubated with the F-18 labeled tracer and several cold derivatives; endogenous in cells; host or cells: NCI-H460 tumor cells
# T1 sequence (Q9UPY5 1-501): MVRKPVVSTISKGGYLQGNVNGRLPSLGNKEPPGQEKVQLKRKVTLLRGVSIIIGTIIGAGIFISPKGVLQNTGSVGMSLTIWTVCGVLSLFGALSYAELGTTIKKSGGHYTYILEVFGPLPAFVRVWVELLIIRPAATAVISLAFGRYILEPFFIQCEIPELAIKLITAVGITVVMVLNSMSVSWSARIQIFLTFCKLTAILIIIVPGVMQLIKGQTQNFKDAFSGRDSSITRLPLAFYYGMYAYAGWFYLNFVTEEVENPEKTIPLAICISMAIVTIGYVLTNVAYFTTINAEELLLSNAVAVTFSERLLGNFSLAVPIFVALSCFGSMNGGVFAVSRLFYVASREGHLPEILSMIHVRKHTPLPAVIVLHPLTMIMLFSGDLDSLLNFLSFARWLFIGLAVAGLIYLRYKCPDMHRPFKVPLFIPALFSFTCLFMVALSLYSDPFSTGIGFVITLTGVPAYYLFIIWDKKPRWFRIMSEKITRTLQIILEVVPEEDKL
# T1 sequence (P08195 1-529 partner): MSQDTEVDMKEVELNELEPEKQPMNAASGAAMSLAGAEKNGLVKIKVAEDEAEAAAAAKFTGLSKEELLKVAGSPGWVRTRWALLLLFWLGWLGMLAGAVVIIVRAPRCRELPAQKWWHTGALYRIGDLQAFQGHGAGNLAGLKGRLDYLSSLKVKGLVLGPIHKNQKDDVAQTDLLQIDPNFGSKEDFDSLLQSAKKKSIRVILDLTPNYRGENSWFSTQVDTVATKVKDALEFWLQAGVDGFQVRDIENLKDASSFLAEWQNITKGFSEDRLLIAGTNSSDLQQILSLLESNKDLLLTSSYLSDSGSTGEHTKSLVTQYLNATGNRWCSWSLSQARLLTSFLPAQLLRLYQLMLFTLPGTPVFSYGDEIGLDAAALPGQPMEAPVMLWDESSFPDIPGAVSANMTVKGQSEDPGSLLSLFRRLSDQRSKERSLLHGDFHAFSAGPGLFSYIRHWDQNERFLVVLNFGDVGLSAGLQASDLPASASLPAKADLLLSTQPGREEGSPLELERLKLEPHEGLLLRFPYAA
# Protocol: For determination of the responsible uptake mechanism, NCI-H460 tumor cells were co-incubated with the F-18 labeled tracer and several cold derivatives. These derivatives were used at a concentration of 1 mM, which is a large excess compared to the tracer. L-Glutamic acid, L-cystine, Carboxyphenylglycine (CPG) were used as competitors. In addition, also D-Glutamic acid, as well as L-aspartic acid and D-aspartic acid were used in this competition experiments. […] The same experiments were performed using [^18F]-1, [^18F]-4, [^18F]-9, [^18F]-8, [^18F]-25 and [^18F]-22.
Kidney (% ID/g at 1 h p.i.) (NCI-H460 tumor [2]) [% ID/g],Liver (% ID/g at 1 h p.i.) (NCI-H460 tumor [2]) [% ID/g],Pancreas (% ID/g at 1 h p.i.) (NCI-H460 tumor [2]) [% ID/g],Tumor (% ID/g at 1 h p.i.) (NCI-H460 tumor [2]) [% ID/g],Urine (% ID at 1 h p.i.) (NCI-H460 tumor [2]) [% ID],T/Blood (NCI-H460 tumor [2]),T/Muscle (NCI-H460 tumor [2]),Kidney (% ID/g at 1 h p.i.) (NCI-H460 tumor [3]) [% ID/g],Liver (% ID/g at 1 h p.i.) (NCI-H460 tumor [3]) [% ID/g],Tumor (Max % ID/g at 1 h p.i.) (NCI-H460 tumor [3]) [% ID/g],Tumor (Mean % ID/g at 1 h p.i.) (NCI-H460 tumor [3]) [% ID/g],Structure (SMILES),time-course of activity in the reactive lymph nodes (reactive lymph nodes),other results
,,,,,,,,,,,"OC[C@H]1OC(O)[C@H]([18F])[C@@H](O)[C@@H]1O (stereo partly shown) [FDG, 2-[^18F]fluorodeoxyglucose, reference compound]",remained almost constant,
,,,,,,,,,,,N[C@@H](CC(CCC[18F])C(=O)O)C(=O)O (stereo partly shown) [4-(3-[^18F]fluoropropyl)glutamic acid],,Kidney uptake (A549 tumor; 30 min post injection): 6.4 % ID/g; pancreas uptake (A549 tumor; 30 min post injection): 8.5 % ID/g; tumor uptake (A549 tumor; 1 h post injection): 1.6 % ID/g
,,,,,,,,,,,"N[C@@H](CCC(Cc1ccc(OCF)cc1)C(=O)O)C(=O)O (stereo partly drawn) [Example 41, (2S)-2-amino-5-[4-(fluoromethoxy)benzyl]hexanedioic acid]",,"blocking of [^18F]-41 uptake ([1]; co-incubation with 1 mM 41, 30 minutes): strong competitor"
3.1 ± 0.4,0.3 ± 0.1,1.0 ± 0.5,6.8 ± 1.3,69.3 ± 14.5,26.3,90.6,0.5,0.4,3.7,1.6,"N[C@@H](CCC(Cc1ccc(OC[18F])cc1)C(=O)O)C(=O)O (stereo partly drawn) [[^18F]-41, (2S)-2-amino-5-[4-(fluoromethoxy)benzyl]hexanedioic acid]",wash-out of radioactivity,"activity retained inside the tumor cells (H460 cells): More than 80%; tumor uptake and retention (summary statement) (NCI-H460 tumor [2]; mouse, in vivo): high tumor uptake and retention; uptake of applied dose by the cells ([1]; 0.25 MBq, 60 min incubation, approx. 100.000 cells): Approximately 13 % of applied dose; initial uptake in the inflammatory lesions (reactive lymph nodes): reduced compared to FDG"
1.0 ± 0.3,1.5 ± 0.5,0.8 ± 0.1,2.8 ± 1.8,79.8 ± 2.2,14.5,38.8,1.2,1.1,1,0.7,"N[C@@H](CC(Cc1ccc(OCCC[18F])cc1)C(=O)O)C(=O)O (stereo partly drawn) [[^18F]-4, 4-[4-(3-[^18F]Fluoropropoxy)benzyl]-L-glutamic acid]",,30 min uptake into H460 cells [%/100.000 cells] [4]: 10.0 ± 0.3 %/100.000 cells; competition profile / uptake mechanism of the tracer (xCT (SLC7A11)): identical competition profile
